{"source": "patent US20040109886A1", "about": "(priority 2002, published 2004)", "origin": "cited, not measured here", "key": {"[1]": {"details": "base"}}, "data": [{"smiles": "O=C(CCCN1CC=C(n2c(=O)[nH]c3ccccc32)CC1)c1ccc(F)cc1", "note": "[droperidol]", "values": [{"measurement": "pKa", "setting": "[1]", "result": 7.64}, {"measurement": "solubility in acidic water", "setting": "acidic water", "result": "soluble"}, {"measurement": "solubility in alcohol", "setting": "alcohol", "result": "high solubility"}]}]}
